Values of other authors in patent US20070031352A1, “Powdery preparations containing diethylamino-hydroxybenzoyl-hexyl-benzoate” (BASF Aktiengesellschaft, priority 2003, published 2007).

Details: at 354 nm

absorbance coefficient: 940
Structure (SMILES): CCCCCCOC(=O)c1ccccc1C(=O)c1ccc(N(CC)CC)cc1O [Uvinul® A Plus, diethylamino hydroxybenzoyl hexyl benzoate]
